Literature values in patent publication US9586989B1, “Non-toxic skin cancer therapy with copper peptides” (Skin Biology, Inc., priority 2011, dated 2017).

Key:
[1] = system: 54 human genes overexpressed in patients with aggressive metastatic form of colon cancer; conditions: for concentration that produced downregulation of "metastatic" genes: Connectivity Map perturbagen search
Ehrlich ascites cells = conditions: injection for 12 days; mixture of 8 micrograms ascorbic acid and 8 micrograms copper 2+ complex

Compound	concentration that produced downregulation of "metastatic" genes [1] [µM]	share of genes in which RNA production was suppressed ([1]; of 54 human genes overexpressed in aggressive metastatic colon cancer, GHK without copper 2+) [%]	share of mice that lived for a long time and resisted re-establishment of tumor cells (Ehrlich ascites cells) [%]	share of mice with prolonged life span (Ehrlich ascites cells) [%]
Gly-L-His-L-Lys [GHK]	1	70		
O=C1C=C2C=C[C@@H]3C[C@@]2(O1)[C@H]1CCCCN31 [securinine]	18			
copper 2+ complexed to Glycyl-Glycyl-L-Histidine			40	60
